# Measurements published in patent US7507727B2, “Substituted quinobenzoxazine analogs and methods of using thereof” (Cylene Pharmaceuticals, Inc., priority 2003, dated 2009).
# pIC50: −log10 of the molar value.
# Target: c-Myc template DNA (c-myc quadruplex)
# Experiment: Quadruplex binding / stop assay (Taq polymerase arrest, capillary electrophoresis)
# Settings: read-out: S DATA; Table 1D, stop assay data
row,pIC50,SMILES
1,6.00,N=C(N)NCCCCNC(=O)c1cn2c3c(c(N4CC5CCCNC5C4)c(F)cc3c1=O)Oc1cc3ccccc3cc1-2 (stereo not shown) [compound 1648]
2,6.12,CN1CCCC1CCNC(=O)c1cn2c3c(c(N4C[C@@H](N)[C@H](c5ccccc5)C4)c(F)cc3c1=O)Oc1cc3ccccc3cc1-2 (stereo partly shown) [compound 1618]
3,< 4.82,COc1ccccc1CCNc1c(F)cc2c(=O)c(C(=O)NCCC3CCCN3C)cn3c2c1Oc1cc2ccccc2cc1-3 (stereo not shown) [compound 1684]
4,5.33,CN1CCC[C@H]1CCNC(=O)c1cn2c3c(c(SCCc4cnccn4)c(F)cc3c1=O)Oc1cc3ccccc3cc1-2 [compound 1770]
5,5.76,CN(C)CCCCNC(=O)c1cn2c3c(c(NCCCCN(C)C)ccc3c1=O)Oc1cc3ccccc3cc1-2 [compound 1544]
6,5.73,CN1CCCC1CCNC(=O)c1cn2c3c(c(SCCc4cnccn4)c(F)cc3c1=O)Oc1cc3ccccc3cc1-2 (stereo not shown) [compound 1760]
7,< 4.82,CC(C)N1CCN(c2c(F)cc3c(=O)c(C(=O)NCCN4CCOCC4)cn4c3c2Oc2ccc(Cl)cc2-4)CC1 [compound 1804]
8,5.76,CC1(C)CC(NC(=O)c2cn3c4c(c(N5CCC(NC(=O)OC(C)(C)C)C5)ccc4c2=O)Oc2cc4ccccc4cc2-3)CC(C)(C)N1 (stereo not shown) [compound 1537]
9,5.76,CN1CCCC1CCNC(=O)c1cn2c3c(c(NCc4ccccc4N4CCOCC4)c(F)cc3c1=O)Oc1cc3ccccc3cc1-2 (stereo not shown) [compound 1511]
10,< 4.82,NC1CCN(C(=O)c2cn3c4c(c(NCCN5CCOCC5)c(F)cc4c2=O)Oc2ccccc2-3)C1 (stereo not shown) [compound 1630]
11,5.52,CCN(CC)CCCC(C)NC(=O)c1cn2c3c(c(N4CCC(c5cnccn5)C4)c(F)cc3c1=O)Oc1ccccc1-2 (stereo not shown) [compound 1725]
12,6.12,CN(C)CCCCNC(=O)c1cn2c3c(c(NCCC4CCCN4C)ccc3c1=O)Oc1cc3ccccc3cc1-2 (stereo not shown) [compound 1526]
13,< 4.82,CN1CCN(CCCNc2c(F)cc3c(=O)c(C(=O)N4CCC(NC(=O)OC(C)(C)C)C4)cn4c3c2Oc2ccccc2-4)CC1 (stereo not shown) [compound 1575]
14,5.54,N#Cc1ccc2c(c1)-n1cc(C(=O)NCCN3CCCC3)c(=O)c3cc(F)c(N4CCC(c5cnccn5)C4)c(c31)O2 (stereo not shown) [compound 1778]
15,< 4.82,CCOC(=O)c1cn2c3c(c(N4CCN(C(C)=O)CC4)c(F)cc3c1=O)Oc1cc(Cl)ccc1-2 [compound 1806]
16,< 4.82,CN1CCCC1CCNC(=O)c1cn2c3c(c(SCCc4cnccn4)c(F)cc3c1=O)Oc1ccccc1-2 (stereo not shown) [compound 1779]
17,4.96,O=C(NCCN1CCCC1)c1cn2c3c(c(N4CCC(c5cnccn5)C4)c(F)cc3c1=O)Oc1ccccc1-2 (stereo not shown) [compound 1724]
18,6.12,CN(C)CCCCNc1ccc2c(=O)c(C(=O)NCCN3CCOCC3)cn3c2c1Oc1cc2ccccc2cc1-3 [compound 1545]
19,5.76,O=C(NCCCN1CCOCC1)c1cn2c3c(c(NCCN4CCCC4)ccc3c1=O)Oc1cc3ccccc3cc1-2 [compound 1518]
20,5.76,CN1CCCC1CCNC(=O)c1cn2c3c(c(NCCCCO)c(F)cc3c1=O)Oc1cc3ccccc3cc1-2 (stereo not shown) [compound 1661]
21,6.43,CN1CCCC1CCNC(=O)c1cn2c3c(c(NCC4CCNC4)c(F)cc3c1=O)Oc1cc3ccccc3cc1-2 (stereo not shown) [compound 1617]
22,< 4.82,CC(C)CC(CO)Nc1c(F)cc2c(=O)c(C(=O)NCCC3CCCN3C)cn3c2c1Oc1cc2ccccc2cc1-3 (stereo not shown) [compound 1743]
23,< 4.82,N=C(N)NCCCCNC(=O)c1cn2c3c(c(NCCN4CCOCC4)c(F)cc3c1=O)Oc1ccccc1-2 [compound 1634]
24,5.76,CN1CCCC1CCNC(=O)c1cn2c3c(c(N4CCC(C(N)=O)CC4)c(F)cc3c1=O)Oc1cc3ccccc3cc1-2 (stereo not shown) [compound 1493]
25,5.18,CC(C)N1CCN(c2c(F)cc3c(=O)c(C(=O)NCCN4CCCC4)cn4c3c2Oc2ccc(Cl)cc2-4)CC1 [compound 1798]

# Same assay, conditions: read-out: Stop Data c-Myc μM; concentration at which 50% of the DNA was arrested (arrested:full-length 1:1)
row,IC50,SMILES
1,2.5 µM,CN1CCN(C(=O)c2cn3c4cc5c(=O)c6ccccc6c(=O)c5cc4oc4c(N5CCC(N)C5)c(F)cc(c2=O)c43)CC1 (stereo not shown) [compound 92]
2,0.375 µM,CN(C)CCCCNC(=O)c1cn2c3cc4oc5cc([N+](=O)[O-])ccc5[nH]c4cc3oc3c(NCCCN4CCOCC4)c(F)cc(c1=O)c32 [compound 555]
3,1.75 µM,Nc1ccc2[nH]c3cc4oc5c(N6CC[C@H](N)C6)c(F)cc6c(=O)c(C(=O)O)cn(c4cc3oc2c1)c56 [compound 11]
4,0.75 µM,CN1CCCC1CCNC(=O)c1cn2c3c(c(NC4CCCNC4)c(F)cc3c1=O)Oc1cc3ccccc3cc1-2 (stereo not shown) [compound 433]
5,0.75 µM,O=C(NCCN1CCOCC1)c1cn2c3cc4c(cc3oc3c(NCCN5CCCC5)c(F)cc(c1=O)c32)c(=O)c1ccccc14 [compound 424]
6,0.75 µM,O=C(NCCN1CCCC1)c1cn2c3cc4c(cc3oc3c(NCCCN5CCOCC5)c(F)cc(c1=O)c32)c(=O)c1ccccc14 [compound 418]
7,1 µM,N=C(N)NCCCCNC(=O)c1cn2c3c(c(N4CC5CCCNC5C4)c(F)cc3c1=O)Oc1cc3ccccc3cc1-2 (stereo not shown) [compound 328]
8,1.75 µM,CC1CCCN(CCCNC(=O)c2cn3c4c(c(N5CCC(N)C5)c(F)cc4c2=O)Oc2cc4ccccc4cc2-3)C1 (stereo not shown) [compound 301]
9,0.375 µM,CC1CCCCN1CCCNc1c(F)cc2c(=O)c(C(=O)NCCC3CCCN3C)cn3c2c1Oc1cc2ccccc2cc1-3 (stereo not shown) [compound 557]
10,1.75 µM,Nc1c(F)c(NCCCN2CCOCC2)c2c3c1c(=O)c(C(=O)N1CCC(N)C1)cn3-c1cc3ccccc3cc1O2 (stereo not shown) [compound 232]
11,0.75 µM,CC(C)(C)OC(=O)N[C@@H]1CCN(c2c(F)cc3c(=O)c(C(=O)NCCCN=C(N)N)cn4c3c2Oc2cc3ccccc3cc2-4)C1 [compound 429]
12,0.75 µM,CN(C)CCCCNC(=O)c1cn2c3c(c(N4CC[C@@H](NC(=O)CCNCCN5CCOCC5)C4)c(F)cc3c1=O)Oc1cc3c(cc1-2)oc1ccccc13 [compound 405]
13,0.34 µM,N=C(N)NCCNC(=O)c1cn2c3c(c(NCCN4CCCC4)c(F)cc3c1=O)Oc1cc3ccccc3cc1-2 [compound 561]
14,1.75 µM,CN(CCCNc1c(F)cc2c(=O)c(C(=O)NCCC3CCCN3C)cn3c2c1Oc1cc2ccccc2cc1-3)c1ccccc1 (stereo not shown) [compound 263]
15,0.375 µM,NC1CCN(c2c(F)cc3c(=O)c(C(=O)NCCCN4CCOCC4)cn4c5cc6c(=O)c7ccccc7c(=O)c6cc5oc2c34)C1 (stereo not shown) [compound 551]
16,0.75 µM,CN1CCCC1CCNCC(=O)N[C@@H]1CCN(c2c(F)cc3c(=O)c(C(=O)NCCC4CCCN4C)cn4c3c2Oc2cc3c(cc2-4)oc2ccccc23)C1 (stereo partly shown) [compound 410]
17,1.13 µM,CN1CCN(CCCNC(=O)c2cn3c4c(c(N5CC[C@@H](N)C5)c(F)cc4c2=O)Oc2c-3ccc3ccccc23)CC1 [compound 304]
18,2.5 µM,CN1CCN(CCCNC(=O)c2cn3c4c(c(N5CC[C@@H](NC(=O)OC(C)(C)C)C5)c(F)cc4c2=O)Oc2cc4ccccc4cc2-3)CC1 [compound 64]
19,1.75 µM,CN(C)CCCCNc1c(F)cc2c(=O)c(C(=O)N3CC[C@H](NC(=O)OC(C)(C)C)C3)cn3c4cc5c(cc4oc1c23)c(=O)c1ccccc15 [compound 207]
20,1.75 µM,CN1CCCC1CCNC(=O)c1cn2c3c(c(NCCC4CCCN4C)c(F)cc3c1=O)Oc1cc3ccccc3cc1-2 (stereo not shown) [compound 124]

row,IC50,SMILES
1,1.75 µM,CN(C)CCCCNc1c(F)cc2c(=O)c(C(=O)NCCN3CCOCC3)cn3c2c1Oc1cc2c(cc1-3)oc1ccccc12 [compound 163]
2,2.5 µM,CC(C)(C)OC(=O)N[C@@H]1CCN(C(=O)c2cn3c4c(c(NCCN5CCOCC5)c(F)cc4c2=O)Oc2cc4ccccc4cc2-3)C1 [compound 56]
3,1.75 µM,CN1CCCC1CCNc1ccc2c(=O)c(C(=O)NCCCN3CCOCC3)cn3c2c1Oc1cc2ccccc2cc1-3 (stereo not shown) [compound 269]
4,1.75 µM,CN(C)CCCCNc1c(F)cc2c(=O)c(C(=O)NCCN3CCOCC3)cn3c2c1Oc1c-3ccc2ccccc12 [compound 141]
5,0.37 µM,N=C(N)NCC1CCCC(CNC(=O)c2cn3c4c(c(N5CCC(N)C5)c(F)cc4c2=O)Oc2cc4ccccc4cc2-3)C1 (stereo not shown) [compound 560]
6,1 µM,O=C(Nc1ccncc1)c1cn2c3c(c(NCCCN4CCOCC4)c(F)cc3c1=O)Oc1cc3c(cc1-2)oc1ccccc13 [compound 315]
7,2.5 µM,N[C@@H]1CCN(c2c(F)cc3c(=O)c(C(=O)NCCN4CCOCC4)cn4c3c2Oc2c-4ccc3ccccc23)C1 [compound 77]
8,0.75 µM,CN1CCCC1CCNC(=O)c1cn2c3c(c(NCCN4CCCCC4)c(F)cc3c1=O)Oc1cc3ccccc3cc1-2 (stereo not shown) [compound 432]
9,2.5 µM,CN(CCc1ccccn1)C(=O)c1cn2c3c(c(N4CC[C@@H](N)C4)c(F)cc3c1=O)Oc1c-2ccc2ccccc12 [compound 80]
10,2.5 µM,CN1CCCC1CCNc1c(F)cc2c(=O)c(C(=O)NCCN3CCOCC3)cn3c2c1Oc1cc2ccccc2cc1-3 (stereo not shown) [compound 67]
11,1 µM,CN(C)CCCCNc1c(F)cc2c(=O)c(C(=O)NCCN3CCCC3)cn3c2c1Oc1cc2ccccc2cc1-3 [compound 318]
12,1 µM,CN1CCCC1CCNC(=O)c1cn2c3c(c(NC4CC(C)(C)NC(C)(C)C4)c(F)cc3c1=O)Oc1cc3ccccc3cc1-2 (stereo not shown) [compound 325]
13,1.75 µM,C[C@H](O)CNc1c(F)cc2c(=O)c(C(=O)NCCC3CCCN3C)cn3c2c1Oc1cc2ccccc2cc1-3 (stereo partly shown) [compound 294]
14,1.75 µM,CN(C)CCCCNc1c(F)cc2c(=O)c(C(=O)O)cn3c2c1Oc1cc2ccccc2cc1-3 [compound 8]
15,1.75 µM,CCN(CC)CCCC(C)NC(=O)c1cn2c3c(c(N4CCC(NC(=O)OC(C)(C)C)C4)c(F)cc3c1=O)Oc1cc3ccccc3cc1-2 (stereo not shown) [compound 241]
16,0.375 µM,CN1CCCC1CCNc1c(F)cc2c(=O)c(C(=O)NCCCN3CCOCC3)cn3c4cc5oc6cc([N+](=O)[O-])ccc6[nH]c5cc4oc1c23 (stereo not shown) [compound 553]
17,0.75 µM,CN1CCCC1CCNCC(=O)N[C@@H]1CCN(c2c(F)cc3c(=O)c(C(=O)NCCN4CCCCC4)cn4c3c2Oc2cc3c(cc2-4)oc2ccccc23)C1 (stereo partly shown) [compound 409]
18,0.75 µM,CN1CCCC1CCNc1c(F)cc2c(=O)c(C(=O)O)cn3c4cc5oc6cc(N)ccc6[nH]c5cc4oc1c23 (stereo not shown) [compound 20]
19,1 µM,N=C(N)NCCCCNC(=O)c1cn2c3c(c(NCCN4CCCC4)c(F)cc3c1=O)Oc1cc3ccccc3cc1-2 [compound 334]
